# From patent US9247759B2, “Identification of human T2R receptors that respond to bitter compounds that elicit the bitter taste in compositions, and the use thereof in assays to identify compounds that inhibit (block) bitter taste in compositions and use thereof” (SENOMYX, INC., priority 2007, dated 2016)
# Where two headings read alike, the source gives them in different places.
# Experiments:
# hT2R64 = hT2R64 (Homo sapiens (Human), UniProt P59538); experiment: hT2R panel inhibition, transient HEK293 G16g44, agonist Aristolochic Acid 1 μM; type: cell-based; conditions: HEK293, compound at 25 μM
# Sequence of hT2R64 (P59538 whole entry): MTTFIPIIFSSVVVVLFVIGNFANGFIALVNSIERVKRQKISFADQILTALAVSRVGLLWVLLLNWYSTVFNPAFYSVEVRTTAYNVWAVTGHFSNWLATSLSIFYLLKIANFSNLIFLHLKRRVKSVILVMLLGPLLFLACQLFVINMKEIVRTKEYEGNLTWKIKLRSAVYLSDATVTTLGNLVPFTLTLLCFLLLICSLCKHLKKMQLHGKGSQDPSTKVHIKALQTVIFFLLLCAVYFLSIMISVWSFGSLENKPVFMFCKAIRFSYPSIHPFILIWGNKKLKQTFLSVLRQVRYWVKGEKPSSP
# Outline: (§1)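 Panel: 22 human T2Rs, individually transient in stable G16g44 cells. Stim: EC80 agonist. Output: % reduction of activity by test cpd.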
# hT2R54 = experiment: hT2R panel inhibition, transient HEK293 G16g44, agonist Ranitidine 5 mM; type: cell-based, human; conditions: compound at 25 μM; receptor activated to EC80 with agonist
# Outline: as §1
# hT2R4 = hT2R4 (Homo sapiens (Human), UniProt Q9NYW5); experiment: hT2R panel inhibition, transient HEK293 G16g44, agonist Chloroquine pH6.5 5 mM; type: cell-based; conditions: HEK293, compound at 25 μM; receptor activated to EC80 with agonist; read-out: inhibition of bitter receptor 4
# Sequence of hT2R4 (Q9NYW5 whole entry): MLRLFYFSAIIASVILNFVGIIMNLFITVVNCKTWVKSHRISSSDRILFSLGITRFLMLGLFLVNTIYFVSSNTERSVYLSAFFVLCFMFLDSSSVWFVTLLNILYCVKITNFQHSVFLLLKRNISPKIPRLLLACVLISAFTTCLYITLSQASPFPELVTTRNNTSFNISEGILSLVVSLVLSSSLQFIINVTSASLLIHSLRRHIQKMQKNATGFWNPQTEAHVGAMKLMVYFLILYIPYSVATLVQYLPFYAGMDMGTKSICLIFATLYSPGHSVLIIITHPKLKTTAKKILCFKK
# Outline: as §1
# hT2R7 = hT2R7 (Homo sapiens (Human), UniProt Q9NYW3); experiment: hT2R panel inhibition, transient HEK293 G16g44, agonist Chloroquine pH6.5 10 mM; type: cell-based; conditions: HEK293, compound at 25 μM
# Sequence of hT2R7 (Q9NYW3 whole entry): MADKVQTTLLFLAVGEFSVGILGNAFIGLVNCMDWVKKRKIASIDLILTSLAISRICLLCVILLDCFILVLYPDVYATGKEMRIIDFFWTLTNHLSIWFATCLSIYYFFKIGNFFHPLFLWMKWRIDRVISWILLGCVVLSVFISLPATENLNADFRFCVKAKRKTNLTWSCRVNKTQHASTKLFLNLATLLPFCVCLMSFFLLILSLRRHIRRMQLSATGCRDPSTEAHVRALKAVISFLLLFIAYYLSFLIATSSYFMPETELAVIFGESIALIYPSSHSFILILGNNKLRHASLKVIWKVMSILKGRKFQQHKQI
# Outline: as §1
# hT2R10 = hT2R10 (Homo sapiens (Human), UniProt Q9NYW0); experiment: hT2R panel inhibition, transient HEK293 G16g44, agonist Strychnine 50 μM; type: cell-based
# Sequence of hT2R10 (Q9NYW0 whole entry): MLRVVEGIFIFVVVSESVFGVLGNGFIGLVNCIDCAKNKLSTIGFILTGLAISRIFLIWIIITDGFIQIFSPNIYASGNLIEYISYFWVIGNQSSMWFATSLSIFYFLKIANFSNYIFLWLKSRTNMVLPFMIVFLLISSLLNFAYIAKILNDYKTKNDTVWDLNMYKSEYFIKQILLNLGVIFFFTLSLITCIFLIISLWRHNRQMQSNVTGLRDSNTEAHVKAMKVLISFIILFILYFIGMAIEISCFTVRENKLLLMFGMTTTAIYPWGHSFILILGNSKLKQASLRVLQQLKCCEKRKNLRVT
# hT2R51 = hT2R51 (Homo sapiens (Human), UniProt P59533); experiment: hT2R panel inhibition, transient HEK293 G16g44, agonist Prop 2.5 μM; type: cell-based; conditions: HEK293, compound at 25 μM
# Sequence of hT2R51 (P59533 whole entry): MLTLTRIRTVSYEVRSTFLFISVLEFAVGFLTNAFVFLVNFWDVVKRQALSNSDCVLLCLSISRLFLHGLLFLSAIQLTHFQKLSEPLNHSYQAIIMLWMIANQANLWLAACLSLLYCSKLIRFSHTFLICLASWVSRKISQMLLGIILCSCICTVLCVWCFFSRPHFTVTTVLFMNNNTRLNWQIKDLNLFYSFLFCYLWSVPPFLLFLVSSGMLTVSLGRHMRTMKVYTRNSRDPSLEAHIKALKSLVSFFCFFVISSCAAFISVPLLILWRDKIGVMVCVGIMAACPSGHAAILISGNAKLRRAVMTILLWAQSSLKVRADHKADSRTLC
# Outline: as §1
# hT2R61 = hT2R61 (Homo sapiens (Human), UniProt P59537); experiment: hT2R panel inhibition, transient HEK293 G16g44, agonist Aristolochic Acid 25 nM; type: cell-based; conditions: HEK293, compound at 25 μM; receptor activated to EC80 with agonist; read-out: inhibition of bitter receptor 61
# Sequence of hT2R61 (P59537 whole entry): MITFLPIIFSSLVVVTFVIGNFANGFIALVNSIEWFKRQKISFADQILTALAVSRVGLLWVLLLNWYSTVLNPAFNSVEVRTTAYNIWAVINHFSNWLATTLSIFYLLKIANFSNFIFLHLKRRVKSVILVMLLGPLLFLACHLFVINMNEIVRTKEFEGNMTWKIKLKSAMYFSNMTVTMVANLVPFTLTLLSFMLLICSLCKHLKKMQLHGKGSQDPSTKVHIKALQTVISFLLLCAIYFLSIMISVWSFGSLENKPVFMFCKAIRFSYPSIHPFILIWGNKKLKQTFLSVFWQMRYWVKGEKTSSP
# Outline: as §1
# hT2R71 = hT2R71 (Homo sapiens (Human), UniProt P59536); experiment: hT2R panel inhibition, transient HEK293 G16g44, agonist Picric Acid 10 μM; type: cell-based; conditions: HEK293, compound at 25 μM
# Sequence of hT2R71 (P59536 whole entry): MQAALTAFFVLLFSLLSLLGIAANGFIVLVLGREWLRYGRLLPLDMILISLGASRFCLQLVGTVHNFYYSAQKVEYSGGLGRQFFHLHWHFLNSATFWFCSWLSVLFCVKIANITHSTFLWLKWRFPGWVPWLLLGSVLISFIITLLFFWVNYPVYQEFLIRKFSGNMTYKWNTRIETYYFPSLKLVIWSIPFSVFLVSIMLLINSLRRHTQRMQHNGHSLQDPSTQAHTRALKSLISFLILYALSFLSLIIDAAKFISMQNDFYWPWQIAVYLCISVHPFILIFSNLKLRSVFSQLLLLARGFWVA
# Outline: as §1
# hT2R44 = experiment: hT2R panel inhibition, transient HEK293 G16g44, agonist Denatonium 0.5 μM; type: cell-based, human; conditions: compound at 25 μM; for inhibition of bitter receptor 44: receptor activated to EC80 with agonist
# Outline: as §1
# hT2R63 = experiment: hT2R panel inhibition, transient HEK293 G16g44, agonist Caffeine 1 mM or Andrographolide 100 μM; type: cell-based, human; conditions: compound at 25 μM; for inhibition of bitter receptor 63: receptor activated to EC80 with agonist
# Outline: as §1
# hT2R67 = experiment: hT2R panel inhibition, transient HEK293 G16g44, agonist Andrographolide 5 μM; type: cell-based, human; conditions: compound at 25 μM; receptor activated to EC80 with agonist
# Outline: as §1
# hT2R14 [1] = target: T1, hT2R14 (Homo sapiens (Human), UniProt Q9NYV8); experiment: hT2R panel inhibition, transient HEK293 G16g44, agonist Aristolochic Acid 2 μM; type: cell-based; conditions: HEK293, compound at 25 μM
# T1 sequence (Q9NYV8 whole entry): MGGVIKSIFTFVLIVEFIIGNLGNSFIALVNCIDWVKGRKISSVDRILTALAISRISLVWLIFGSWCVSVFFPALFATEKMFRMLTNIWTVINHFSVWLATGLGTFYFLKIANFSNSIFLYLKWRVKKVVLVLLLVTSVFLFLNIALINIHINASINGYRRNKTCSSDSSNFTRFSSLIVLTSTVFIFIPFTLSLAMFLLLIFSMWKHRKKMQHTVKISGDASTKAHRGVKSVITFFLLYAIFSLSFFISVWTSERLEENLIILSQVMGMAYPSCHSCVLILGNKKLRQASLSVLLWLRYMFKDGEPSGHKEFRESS
# Outline: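 Agonist challenge was at EC80, with 0.5 mM andrographolide on hT2R8 and 2 μM aristolochic acid on hT2R14. Inhibition was measured in functional assays in HEK293 cells that stably carry the promiscuous G protein G16g44 and were transiently transfected with the individual receptor.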
# hT2R3 = hT2R3 (Homo sapiens (Human), UniProt Q9NYW6); experiment: hT2R panel inhibition, transient HEK293 G16g44, agonist Chloroquine pH6.5 50 μM; type: cell-based; conditions: HEK293, compound at 25 μM
# Sequence of hT2R3 (Q9NYW6 whole entry): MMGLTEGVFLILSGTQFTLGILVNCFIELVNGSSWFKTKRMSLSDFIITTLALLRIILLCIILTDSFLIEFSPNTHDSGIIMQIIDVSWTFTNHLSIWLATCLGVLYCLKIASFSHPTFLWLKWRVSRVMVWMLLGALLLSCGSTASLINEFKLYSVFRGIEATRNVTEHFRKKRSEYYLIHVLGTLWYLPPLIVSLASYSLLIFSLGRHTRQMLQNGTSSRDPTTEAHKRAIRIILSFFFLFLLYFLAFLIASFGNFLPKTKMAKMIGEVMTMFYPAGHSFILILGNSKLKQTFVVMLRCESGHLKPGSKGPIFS
# Outline: as §1
# hT2R65 = experiment: hT2R panel inhibition, transient HEK293 G16g44, agonist Oleuropein 1 mM; type: cell-based, human; conditions: compound at 25 μM; receptor activated to EC80 with agonist
# Outline: as §1
# hT2R13 = hT2R13 (Homo sapiens (Human), UniProt Q9NYV9); experiment: hT2R panel inhibition, transient HEK293 G16g44, agonist Oxyphenonium 1 mM; type: cell-based; conditions: HEK293, compound at 25 μM
# Sequence of hT2R13 (Q9NYV9 whole entry): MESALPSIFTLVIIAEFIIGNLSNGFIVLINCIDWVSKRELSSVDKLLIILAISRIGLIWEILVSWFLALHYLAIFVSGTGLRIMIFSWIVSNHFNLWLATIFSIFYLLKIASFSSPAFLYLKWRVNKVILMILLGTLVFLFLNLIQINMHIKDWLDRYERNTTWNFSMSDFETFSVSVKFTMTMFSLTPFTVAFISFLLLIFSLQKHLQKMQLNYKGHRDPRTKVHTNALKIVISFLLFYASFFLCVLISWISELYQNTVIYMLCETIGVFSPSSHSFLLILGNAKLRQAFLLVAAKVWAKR
# Procedure: Specifically, in order to evaluate the inhibitory selectivity of the Compound C compound, this compound was tested against 22 human T2Rs which were deorphaned by Senomyx. These receptors and the bitter ligands that activate these human T2Rs are reported in earlier patent applications which are incorporated by reference herein. These 22 human T2Rs are hT2R1, 3, 4, 5, 7, 8, 9, 10, 13, 14, 16, 44, 51, 54, 55, 61, 63, 64, 65, 67, 71 and 75. The amino acid and nucleic acid sequences of all of these T2Rs may be found in these earlier patent applications. These human T2Rs were each individually transiently transfected into HEK293 cells that stably express the promiscuous G protein G16g44 and functional assays were effected using these receptors as disclosed in these same patent applications. […] The ligands were used at EC80 concentration levels. The list of bitter ligands utilized and the tested ligand concentrations are contained in Table 5 of this example.
# Relating to the foregoing, FIG. 5 contains experimental results wherein Compound C was tested with different agonist compounds. The inhibition activity is represented by the reduction of receptor activity in the presence of Compound C. […] These 13 hT2Rs are hT2R3, 7, 10, 14, 16, 44, 51, 55, 61, 63, 64, 65, and 71.
# hT2R16 = hT2R16 (Homo sapiens (Human), UniProt Q9NYV7); experiment: hT2R panel inhibition, transient HEK293 G16g44, agonist Salicin 1 mM; type: cell-based; conditions: HEK293, compound at 25 μM
# Sequence of hT2R16 (Q9NYV7 whole entry): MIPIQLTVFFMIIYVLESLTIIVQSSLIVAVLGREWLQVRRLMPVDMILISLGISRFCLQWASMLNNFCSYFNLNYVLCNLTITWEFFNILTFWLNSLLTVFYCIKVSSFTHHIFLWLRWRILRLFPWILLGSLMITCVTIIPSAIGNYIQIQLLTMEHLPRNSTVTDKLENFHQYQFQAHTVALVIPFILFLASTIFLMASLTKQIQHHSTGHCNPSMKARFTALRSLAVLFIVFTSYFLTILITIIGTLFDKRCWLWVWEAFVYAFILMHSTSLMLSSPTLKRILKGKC
# Outline: as §1
# hT2R55 = experiment: hT2R panel inhibition, transient HEK293 G16g44, agonist Cinchonine 150 μM; type: cell-based, human; conditions: compound at 25 μM
# Outline: as §1
# hT2R14 [2] = target: T1, hT2R14; experiment: hT2R14 antagonist high-throughput FLIPR assay, stable cell line with G16g44, agonist aristolochic acid; type: cell-based; conditions: read-out: IC50 on hT2R14 bitter receptor
# Outline: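 Compounds were co-applied with 3 μM aristolochic acid, a dose set to reach 70-80% of maximal hT2R14 activation. Read-out was FLIPR fluorescence in a stable HEK293 line co-expressing hT2R14 and G16g44.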
# hT2R75 = hT2R75 (Homo sapiens (Human), UniProt P59540); experiment: hT2R panel inhibition, transient HEK293 G16g44, agonist Strychnine 1 μM; type: cell-based; conditions: HEK293, read-out: screening result against bitter receptor 75, compound at 25 μM; receptor activated to EC80 with the corresponding agonist
# Sequence of hT2R75 (P59540 whole entry): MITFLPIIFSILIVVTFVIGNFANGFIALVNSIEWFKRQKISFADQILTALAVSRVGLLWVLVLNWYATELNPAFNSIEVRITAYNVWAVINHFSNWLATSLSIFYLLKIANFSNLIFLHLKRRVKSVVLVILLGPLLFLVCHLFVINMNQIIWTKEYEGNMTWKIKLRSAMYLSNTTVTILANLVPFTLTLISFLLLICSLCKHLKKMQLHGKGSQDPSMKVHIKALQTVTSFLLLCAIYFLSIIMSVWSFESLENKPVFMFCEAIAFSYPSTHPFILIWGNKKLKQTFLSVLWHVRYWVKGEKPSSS
# hT2R5 = hT2R5 (Homo sapiens (Human), UniProt Q9NYW4); experiment: hT2R panel inhibition, transient HEK293 G16g44, agonist Picoline 10 mM; type: cell-based; conditions: HEK293, compound at 25 μM; receptor activated to EC80 with the corresponding agonist; read-out: screening result against bitter receptor 5
# Sequence of hT2R5 (Q9NYW4 whole entry): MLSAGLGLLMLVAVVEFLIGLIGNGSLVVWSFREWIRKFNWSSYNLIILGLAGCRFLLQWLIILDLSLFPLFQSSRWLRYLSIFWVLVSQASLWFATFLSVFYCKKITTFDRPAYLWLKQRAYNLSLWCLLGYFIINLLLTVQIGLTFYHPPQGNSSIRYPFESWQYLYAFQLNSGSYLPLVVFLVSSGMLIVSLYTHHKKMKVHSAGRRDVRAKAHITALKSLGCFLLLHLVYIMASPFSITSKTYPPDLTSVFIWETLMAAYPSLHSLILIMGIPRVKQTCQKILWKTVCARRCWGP
# Outline: as §1
# hT2R9 = hT2R9 (Homo sapiens (Human), UniProt Q9NYW1); experiment: hT2R panel inhibition, transient HEK293 G16g44, agonist Ofloxacin 1 mM; type: cell-based; conditions: HEK293, compound at 25 μM
# Sequence of hT2R9 (Q9NYW1 whole entry): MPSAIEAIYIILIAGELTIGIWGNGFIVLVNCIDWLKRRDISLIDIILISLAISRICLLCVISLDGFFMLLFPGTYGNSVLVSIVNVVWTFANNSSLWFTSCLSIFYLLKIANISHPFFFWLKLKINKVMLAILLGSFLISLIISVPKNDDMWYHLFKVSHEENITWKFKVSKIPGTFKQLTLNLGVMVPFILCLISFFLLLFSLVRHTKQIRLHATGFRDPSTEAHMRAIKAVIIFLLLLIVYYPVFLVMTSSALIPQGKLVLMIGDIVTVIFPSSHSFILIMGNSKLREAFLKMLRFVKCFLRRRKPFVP
# Outline: as §1
# [3] = receptor activated to EC80 with agonist, read-out: inhibition of bitter receptor 7
# [4] = receptor activated to EC80 with agonist, read-out: inhibition of bitter receptor 14
# [5] = receptor activated to EC80 with agonist, read-out: inhibition of bitter receptor 13
# [6] = receptor activated to EC80 with the corresponding agonist
structure (smiles),measurement,setting,value
"CCCOc1ccc(CN(Cc2ccccc2)S(=O)(=O)c2ccc(C(=O)O)cc2)cc1 [Example 5-109, 4-(N-benzyl-N-(4-propoxybenzyl)sulfamoyl)benzoic acid]",inhibition at 25 µM,"hT2R64; receptor activated to EC80 with agonist, read-out: inhibition of bitter receptor 64",> 80%
same,inhibition of bitter receptor 54,hT2R54,+ (20% to 40% inhibition = +)
same,inhibition at 25 µM,hT2R4,40 to 60%
same,inhibition at 25 µM,hT2R7; [3],20 to 40%
same,inhibition at 25 µM,"hT2R10; HEK293, read-out: inhibition of bitter receptor 10, compound at 25 μM, receptor activated to EC80 with agonist",40 to 60%
same,inhibition at 25 µM,"hT2R51; receptor activated to EC80 with agonist, read-out: inhibition of bitter receptor 51",40 to 60%
same,inhibition at 25 µM,hT2R61,60 to 80%
same,inhibition at 25 µM,"hT2R71; receptor activated to EC80 with agonist, read-out: inhibition of bitter receptor 71",60 to 80%
same,inhibition of bitter receptor 44,hT2R44,++ (40% to 60% inhibition = ++)
same,inhibition of bitter receptor 63,hT2R63,++ (40% to 60% inhibition = ++)
same,inhibition of bitter receptor 67,hT2R67,+ (20% to 40% inhibition = +)
same,inhibition at 25 µM,hT2R14 [1]; [4],> 80%
same,inhibition at 25 µM,"hT2R3; receptor activated to EC80 with agonist, read-out: inhibition of bitter receptor 3",40 to 60%
same,inhibition of bitter receptor 65,hT2R65,+++ (60% to 80% inhibition = +++)
same,inhibition at 25 µM,hT2R13; [5],20 to 40%
same,inhibition at 25 µM,"hT2R16; receptor activated to EC80 with agonist, read-out: inhibition of bitter receptor 16",20 to 40%
same,inhibition of bitter receptor 55,hT2R55; receptor activated to EC80 with agonist,++++ (80% or greater inhibition = ++++)
"COc1ccc(CN(Cc2ccc(OC)cc2)S(=O)(=O)c2ccc(C(=O)O)cc2)cc1 [Example 5-30, 4-(N,N-bis(4-methoxybenzyl)sulfamoyl)benzoic acid]",inhibition at 25 µM,"hT2R64; receptor activated to EC80 with the corresponding agonist, read-out: screening result against bitter receptor 64",> 80%
same,IC50,hT2R14 [2],4.14 µM
same,inhibition at 25 µM,"hT2R7; receptor activated to EC80 with the corresponding agonist, read-out: screening result against bitter receptor 7",20 to 40%
same,inhibition at 25 µM,"hT2R10; HEK293, read-out: screening result against bitter receptor 10, compound at 25 μM, receptor activated to EC80 with the corresponding agonist",40 to 60%
same,inhibition at 25 µM,"hT2R51; receptor activated to EC80 with the corresponding agonist, read-out: screening result against bitter receptor 51",40 to 60%
same,inhibition at 25 µM,hT2R75,20 to 40%
same,inhibition at 25 µM,"hT2R71; receptor activated to EC80 with the corresponding agonist, read-out: screening result against bitter receptor 71",60 to 80%
same,screening result against bitter receptor 44,hT2R44; [6],+++ (60% to 80% inhibition = +++)
same,screening result against bitter receptor 63,hT2R63; [6],++++ (80% or greater inhibition = ++++)
same,inhibition at 25 µM,hT2R5,20 to 40%
same,inhibition at 25 µM,"hT2R14 [1]; receptor activated to EC80 with the corresponding agonist, read-out: screening result against bitter receptor 14",> 80%
same,inhibition at 25 µM,"hT2R3; receptor activated to EC80 with the corresponding agonist, read-out: screening result against bitter receptor 3",40 to 60%
same,inhibition at 25 µM,"hT2R9; receptor activated to EC80 with the corresponding agonist, read-out: screening result against bitter receptor 9",20 to 40%
same,inhibition at 25 µM,"hT2R13; receptor activated to EC80 with the corresponding agonist, read-out: screening result against bitter receptor 13",20 to 40%
same,inhibition at 25 µM,"hT2R16; receptor activated to EC80 with the corresponding agonist, read-out: screening result against bitter receptor 16",20 to 40%
same,screening result against bitter receptor 55,hT2R55; [6],++++ (80% or greater inhibition = ++++)
"Cn1c(=O)c(=O)n(C)c2cc(S(=O)(=O)Nc3ccc(Cc4ccccn4)cc3)ccc21 [Example 6-4, 1,4-dimethyl-2,3-dioxo-N-(4-(pyridin-2-ylmethyl)phenyl)-1,2,3,4-tetrahydroquinoxaline-6-sulfonamide]",IC50,hT2R14 [2],6.14 µM
same,inhibition at 25 µM,hT2R7; [3],20 to 40%
same,inhibition at 25 µM,hT2R61,20 to 40%
same,inhibition of bitter receptor 44,hT2R44,+ (20% to 40% inhibition = +)
same,inhibition of bitter receptor 63,hT2R63,+ (20% to 40% inhibition = +)
same,inhibition at 25 µM,hT2R14 [1]; [4],> 80%
same,inhibition at 25 µM,"hT2R9; receptor activated to EC80 with agonist, read-out: inhibition of bitter receptor 9",20 to 40%
same,inhibition at 25 µM,hT2R13; [5],> 80%
